# Reference: US11517018B2, “Herbicidal composition comprising cinmethylin and saflufenacil” (BASF Agro B.V., priority 2015, dated 2022)
# “And” between values parts separate entries of the source, which are not always exact repeats. Identical values can stand only once.
# Legend:
# Assay type in all cases: in vivo
# Conditions in all cases: 20 DAT
# Abutilon theophrasti = assay: Greenhouse preemergence herbicidal activity, ABUTH
# Procedure: (§1) The test plants have been seeded, separately for each species, in plastic containers in sandy loamy soil containing 5% of organic matter.
# (§2) The containers were irrigated gently to promote germination and growth and subsequently covered with transparent plastic hoods until the plants had rooted.
# (§3) The plants have been cultivated due to their individual requirements at 10-25° C. and 20-35° C. The plants were irrigated due to their necessity.
# (§4) In the following experiments, the herbicidal activity for the individual herbicidal compositions (solo and mixture applications) was assessed 20 days after treatment (DAT).
# (§5) The evaluation for the damage on undesired weeds caused by the chemical compositions was carried out using a scale from 0 to 100%, compared to the untreated control plants. Here, 0 means no damage and 100 means complete destruction of the plants.
# (§6) E=X+Y−(X·Y/100) where • X=effect in percent using herbicide A at an application rate a; • Y=effect in percent using herbicide B at application rate b; • E=expected effect (in %) of herbicide A+herbicide B at application rates a+b.
# (§7) The value E corresponds to the effect (plant damage or injury) which is to be expected if the activity of the individual compounds is additive. If the observed effect is higher than the value E calculated according to the Colby equation, a synergistic effect is present.
# Alopecurus myosuroides = assay: Greenhouse preemergence herbicidal activity, ALOMY
# Procedure: as §1, §2, §3, §4, §5, §6, §7
# Avena fatua [1] = assay: Greenhouse preemergence herbicidal activity, AVEFA
# Procedure: as §1, §2, §3, §4, §5, §6, §7
# Lolium multiflorum [2] = assay: Greenhouse preemergence herbicidal activity, LOLMU
# Procedure: as §1, §2, §3, §4, §5, §6, §7
# Chenopodium album = assay: Greenhouse preemergence herbicidal activity, CHEAL
# Procedure: as §1, §2, §3, §4, §5, §6, §7
# Galium aparine = assay: Greenhouse preemergence herbicidal activity, GALAP
# Procedure: as §1, §2, §3, §4, §5, §6, §7
# Geranium dissectum = assay: Greenhouse preemergence herbicidal activity, GERDI
# Procedure: as §1, §2, §3, §4, §5, §6, §7
# Papaver rhoeas = assay: Greenhouse preemergence herbicidal activity, PAPRH
# Procedure: as §1, §2, §3, §4, §5, §6, §7
# Polygonum convolvulus = assay: Greenhouse preemergence herbicidal activity, POLCO
# Procedure: as §1, §2, §3, §4, §5, §6, §7
# Setaria viridis = assay: Greenhouse preemergence herbicidal activity, SETVI
# Procedure: as §1, §2, §3, §4, §5, §6, §7
# Sorghum halepense [3] = assay: Greenhouse preemergence herbicidal activity, SORHA
# Procedure: as §1, §2, §3, §4, §5, §6, §7
# Stellaria media [4] = assay: Greenhouse preemergence herbicidal activity, STEME
# Procedure: as §1, §2, §3, §4, §5, §6, §7
# Avena fatua [5] = assay: Greenhouse postemergence herbicidal activity, AVEFA
# Procedure: as §1
# (§8) For the post emergence treatment, the plants were first grown to the 2 leaf station (GS 12). Here, the herbicidal compositions were suspended or emulsified in water as distribution medium and sprayed using finely distributing nozzels.
# as §3, §4, §5, §6, §7
# Digitaria sanguinalis = assay: Greenhouse postemergence herbicidal activity, DIGSA
# Procedure: as §1, §8, §3, §4, §5, §6, §7
# Lolium multiflorum [6] = assay: Greenhouse postemergence herbicidal activity, LOLMU
# Procedure: as §1, §8, §3, §4, §5, §6, §7
# Sorghum halepense [7] = assay: Greenhouse postemergence herbicidal activity, SORHA
# Procedure: as §1, §8, §3, §4
# The evaluation for the damage on undesired weeds caused by the chemical compositions was carried out using a scale from 0 to 100%, compared to the untreated control plants. Here, 0 means no damage and 100 means complete destruction of the plants. […]
# as §7
# Stellaria media [8] = assay: Greenhouse postemergence herbicidal activity, STEME
# Procedure: as §1, §8, §3, §4, §5, §6, §7
# [9] = saflufenacil solo 0.625 g ai/ha
smiles,measurement,setting,value
"Cc1ccccc1CO[C@@H]1C[C@@]2(C(C)C)CC[C@@]1(C)O2 (racemic) [herbicide A, (±)-2-exo-(2-Methylbenzyloxy)-1-methyl-4-isopropyl-7-oxabicyclo[2.2.1]heptane]",herbicidal activity,Abutilon theophrasti; herbicide A solo 31.25 g ai/ha,35%
same,herbicidal activity,Abutilon theophrasti; herbicide A solo 50 g ai/ha,0%
same,herbicidal activity,Abutilon theophrasti; herbicide A solo 62.5 g ai/ha,40%
same,herbicidal activity,Abutilon theophrasti; herbicide A solo 100 g ai/ha,0%
same,herbicidal activity,Alopecurus myosuroides; herbicide A solo 31.25 g ai/ha,95%
same,herbicidal activity,Alopecurus myosuroides; herbicide A solo 62.5 g ai/ha,95% and 98%
same,herbicidal activity,Avena fatua [1]; herbicide A solo 31.25 g ai/ha,30%
same,herbicidal activity,Avena fatua [1]; herbicide A solo 50 g ai/ha,0%
same,herbicidal activity,Avena fatua [1]; herbicide A solo 100 g ai/ha,20%
same,herbicidal activity,Avena fatua [1]; herbicide A solo 125 g ai/ha,35%
same,herbicidal activity,Avena fatua [1]; herbicide A solo 200 g ai/ha,50%
same,herbicidal activity,Avena fatua [1]; herbicide A solo 250 g ai/ha,60% and 70%
same,herbicidal activity,Avena fatua [1]; herbicide A solo 500 g ai/ha,80%
same,herbicidal activity,Lolium multiflorum [2]; herbicide A solo 25 g ai/ha,50%
same,herbicidal activity,Lolium multiflorum [2]; herbicide A solo 62.5 g ai/ha,30%
same,herbicidal activity,Lolium multiflorum [2]; herbicide A solo 100 g ai/ha,95%
same,herbicidal activity,Lolium multiflorum [2]; herbicide A solo 125 g ai/ha,85%
same,herbicidal activity,Lolium multiflorum [2]; herbicide A solo 200 g ai/ha,98%
same,herbicidal activity,Lolium multiflorum [2]; herbicide A solo 250 g ai/ha,98%
same,herbicidal activity,Lolium multiflorum [2]; herbicide A solo 500 g ai/ha,95%
same,herbicidal activity,"Chenopodium album; CHEAI, herbicide A solo 62.5 g ai/ha",40%
same,herbicidal activity,"Chenopodium album; CHEAL, herbicide A solo 125 g ai/ha",95%
same,herbicidal activity,"Chenopodium album; CHEAL, herbicide A solo 500 g ai/ha",85%
same,herbicidal activity,Galium aparine; herbicide A solo 25 g ai/ha,0%
same,herbicidal activity,Galium aparine; herbicide A solo 50 g ai/ha,0%
same,herbicidal activity,Galium aparine; herbicide A solo 125 g ai/ha,65%
same,herbicidal activity,Galium aparine; herbicide A solo 200 g ai/ha,30%
same,herbicidal activity,Geranium dissectum; herbicide A solo 25 g ai/ha,50%
same,herbicidal activity,Geranium dissectum; herbicide A solo 125 g ai/ha,80%
same,herbicidal activity,Papaver rhoeas; herbicide A solo 25 g ai/ha,0%
same,herbicidal activity,Papaver rhoeas; herbicide A solo 31.25 g ai/ha,65%
same,herbicidal activity,Papaver rhoeas; herbicide A solo 50 g ai/ha,0%
same,herbicidal activity,Polygonum convolvulus; herbicide A solo 25 g ai/ha,0%
same,herbicidal activity,Polygonum convolvulus; herbicide A solo 50 g ai/ha,0%
same,herbicidal activity,Polygonum convolvulus; herbicide A solo 62.5 g ai/ha,0%
same,herbicidal activity,Setaria viridis; herbicide A solo 31.25 g ai/ha,95%
same,herbicidal activity,Setaria viridis; herbicide A solo 62.5 g ai/ha,90%
same,herbicidal activity,Setaria viridis; herbicide A solo 125 g ai/ha,95%
same,herbicidal activity,Setaria viridis; herbicide A solo 250 g ai/ha,98%
same,herbicidal activity,Sorghum halepense [3]; herbicide A solo 50 g ai/ha,95%
same,herbicidal activity,Sorghum halepense [3]; herbicide A solo 100 g ai/ha,98%
same,herbicidal activity,Sorghum halepense [3]; herbicide A solo 200 g ai/ha,98%
same,herbicidal activity,Stellaria media [4]; herbicide A solo 31.25 g ai/ha,40%
same,herbicidal activity,Stellaria media [4]; herbicide A solo 50 g ai/ha,20%
same,herbicidal activity,Avena fatua [5]; herbicide A solo 43.8 g ai/ha,25%
same,herbicidal activity,Avena fatua [5]; herbicide A solo 87.5 g ai/ha,30%
same,herbicidal activity,Avena fatua [5]; herbicide A solo 350 g ai/ha,70%
same,herbicidal activity,Digitaria sanguinalis; herbicide A solo 87.5 g ai/ha,65%
same,herbicidal activity,Digitaria sanguinalis; herbicide A solo 125 g ai/ha,85%
same,herbicidal activity,Lolium multiflorum [6]; herbicide A solo 43.8 g ai/ha,0%
same,herbicidal activity,Lolium multiflorum [6]; herbicide A solo 62.5 g ai/ha,0%
same,herbicidal activity,Lolium multiflorum [6]; herbicide A solo 87.5 g ai/ha,0%
same,herbicidal activity,Lolium multiflorum [6]; herbicide A solo 125 g ai/ha,0%
same,herbicidal activity,Lolium multiflorum [6]; herbicide A solo 350 g ai/ha,75%
same,herbicidal activity,Sorghum halepense [7]; herbicide A solo 350 g ai/ha,70%
same,herbicidal activity,Stellaria media [8]; herbicide A solo 43.8 g ai/ha,0%
same,herbicidal activity,Stellaria media [8]; herbicide A solo 62.5 g ai/ha,25%
"CC(C)N(C)S(=O)(=O)NC(=O)c1cc(-n2c(=O)cc(C(F)(F)F)n(C)c2=O)c(F)cc1Cl [saflufenacil, N′-{2-chloro-4-fluoro-5-[1,2,3,6-tetrahydro-3-methyl-2,6-dioxo-4-(trifluoromethyl)pyrimidin-1-yl]benzoyl}-N-isopropyl-N-methylsulfamide]",herbicidal activity,Abutilon theophrasti; saflufenacil solo 4.4 g ai/ha,65%
same,herbicidal activity,Abutilon theophrasti; saflufenacil solo 6.25 g ai/ha,98%
same,herbicidal activity,Abutilon theophrasti; saflufenacil solo 8.8 g ai/ha,85%
same,herbicidal activity,Abutilon theophrasti; saflufenacil solo 12.5 g ai/ha,98%
same,herbicidal activity,Alopecurus myosuroides; saflufenacil solo 4.4 g ai/ha,0%
same,herbicidal activity,Alopecurus myosuroides; saflufenacil solo 8.8 g ai/ha,0%
same,herbicidal activity,Alopecurus myosuroides; saflufenacil solo 25 g ai/ha,0%
same,herbicidal activity,Avena fatua [1]; saflufenacil solo 4.4 g ai/ha,0%
same,herbicidal activity,Avena fatua [1]; saflufenacil solo 6.25 g ai/ha,0%
same,herbicidal activity,Avena fatua [1]; saflufenacil solo 8.8 g ai/ha,0%
same,herbicidal activity,Avena fatua [1]; saflufenacil solo 12.5 g ai/ha,0%
same,herbicidal activity,Avena fatua [1]; saflufenacil solo 35 g ai/ha,20%
same,herbicidal activity,Avena fatua [1]; saflufenacil solo 50 g ai/ha,0%
same,herbicidal activity,Lolium multiflorum [2]; saflufenacil solo 3.13 g ai/ha,0%
same,herbicidal activity,Lolium multiflorum [2]; saflufenacil solo 12.5 g ai/ha,0%
same,herbicidal activity,"Chenopodium album; CHEAI, saflufenacil solo 25 g ai/ha",90%
same,herbicidal activity,"Chenopodium album; CHEAL, saflufenacil solo 25 g ai/ha",90%
same,herbicidal activity,Galium aparine; saflufenacil solo 3.13 g ai/ha,0%
same,herbicidal activity,Galium aparine; saflufenacil solo 6.25 g ai/ha,20%
same,herbicidal activity,Galium aparine; saflufenacil solo 17.5 g ai/ha,95%
same,herbicidal activity,Galium aparine; saflufenacil solo 25 g ai/ha,98%
same,herbicidal activity,Geranium dissectum; saflufenacil solo 3.13 g ai/ha,20%
same,herbicidal activity,Geranium dissectum; saflufenacil solo 17.5 g ai/ha,80%
same,herbicidal activity,Papaver rhoeas; saflufenacil solo 3.13 g ai/ha,95%
same,herbicidal activity,Papaver rhoeas; saflufenacil solo 4.4 g ai/ha,85%
same,herbicidal activity,Papaver rhoeas; saflufenacil solo 6.25 g ai/ha,90%
same,herbicidal activity,Polygonum convolvulus; saflufenacil solo 3.13 g ai/ha,20%
same,herbicidal activity,Polygonum convolvulus; saflufenacil solo 6.25 g ai/ha,98%
same,herbicidal activity,Polygonum convolvulus; saflufenacil solo 8.8 g ai/ha,90%
same,herbicidal activity,Setaria viridis; saflufenacil solo 4.4 g ai/ha,0%
same,herbicidal activity,Setaria viridis; saflufenacil solo 25 g ai/ha,60%
same,herbicidal activity,Setaria viridis; saflufenacil solo 50 g ai/ha,65%
same,herbicidal activity,Sorghum halepense [3]; saflufenacil solo 6.25 g ai/ha,0%
same,herbicidal activity,Sorghum halepense [3]; saflufenacil solo 12.5 g ai/ha,10%
same,herbicidal activity,Sorghum halepense [3]; saflufenacil solo 25 g ai/ha,30%
same,herbicidal activity,Stellaria media [4]; saflufenacil solo 4.4 g ai/ha,90%
same,herbicidal activity,Stellaria media [4]; saflufenacil solo 6.25 g ai/ha,95%
same,herbicidal activity,Avena fatua [5]; [9],0%
same,herbicidal activity,Avena fatua [5]; saflufenacil solo 1.25 g ai/ha,0%
same,herbicidal activity,Avena fatua [5]; saflufenacil solo 5 g ai/ha,0%
same,herbicidal activity,Digitaria sanguinalis; saflufenacil solo 1.25 g ai/ha,75%
same,herbicidal activity,Lolium multiflorum [6]; [9],0%
same,herbicidal activity,Lolium multiflorum [6]; saflufenacil solo 1.25 g ai/ha,0%
same,herbicidal activity,Lolium multiflorum [6]; saflufenacil solo 5 g ai/ha,50%
same,herbicidal activity,Sorghum halepense [7]; saflufenacil solo 5 g ai/ha,65%
same,herbicidal activity,Stellaria media [8]; [9],85%
